{
  "source": "patent US20250270648A1",
  "about": "“MOLECULAR SIGNATURE FOR ASSESSING THE RESPONSIVENESS OF CANCER TO MITOCHONDRIA-TARGETED ANTIOXIDANTS” (UNIVERSITÉ CATHOLIQUE DE LOUVAIN, priority 2021, published 2025)",
  "key": {"[1]": {"tested_on": "Human MDA-MB-231 breast cancer cells", "experiment": "Cell viability, crystal violet", "type": "cell-based", "details": "increasing doses of cisplatin ±100 nM MitoQ, 48 h", "protocol": "[…] The solution was carefully removed and plates were washed twice with water. After drying protected by light, cells were resuspended in 50 μl DMSO and the plates were read with a Victor X4 plate reader (Perkin®)."}, "[2]": {"tested_on": "MDA-MB-436 breast cancer cells", "experiment": "Mitochondrial potential, JC-10", "type": "cell-based, human", "details": "MitoQ 100 nM, 48 h", "protocol": "(§1) The mitochondrial potential (ΔΨ) was measured using JC-10 Mitochondrial Membrane Potential Assay Kit (Abcam®, #ab112134), according to manufacturer's recommendations. Briefly, MDA-MB-231 (10^4 cells/well), SkBr3 (10^4 cells/well), MDA-MB-436 (10^4 cells/well) or MCF10A (10^5 cells/well) cells were seeded in 96-well plates and treated for 48 h±MitoQ. Cells were then washed twice and incubated with JC-10 (1× solution) for 45 min. Fluorescence intensities were measured at 490/525 nm and […] using a SpectraMax i3 spectrophotometer equipped with a MiniMax imaging cytometer (Molecular Devices®)."}, "[3]": {"tested_on": "MCF10A normal breast epithelial cells", "experiment": "Mitochondrial potential, JC-10", "type": "cell-based, human", "details": "MitoQ 100 nM, 48 h", "protocol": "as §1"}, "[4]": {"tested_on": "MDA-MB-436 spheroids", "experiment": "Spheres / stem-like spheroids", "type": "cell-based, human", "details": "increasing doses of MitoQ, over 1 week", "protocol": "3D models were used to obtain an enriched population in stem cells. For that, 10^4 MDA-MB-231, SkBr3 or MDA-MB-436 cancer cells were grown in suspension using 10 cm dishes coated with Polyhema in stem-cell medium: DMEM/F-12 (Gibco®, cat #11320033) supplemented with 100 units/mL penicillin, 100 μg/mL streptomycin, 20 μL/mL B27 (Gibco®, cat #17504044), 20 ng/mL human recombinant epithelial growth factor (EGF) (Peprotech®, cat #AF-100-15), 10 ng/mL basic fibroblast growth factor (bFGF; Peprotech®, cat #100-18B) and 2.5 mg/mL insulin. When spheres reached around 100 μm in diameter, they were washed with PBS and dissociated with accutase (Stem Cell Technology®, cat #07920) in order to have single cells again. […] Images were captured on Axiovert™ 40 CFL microscope equipped with a MRC camera. At the end of the treatment, living cells were collected for RNA extraction.\nStem like-spheroids were prepared by seeding 5,000 MDA-MB-231, SkBr3 or MDA-MB-436 dissociated spheres/well in ultra-Low attachment 96-well plates (Corning®, cat #7007) in stem cell medium supplemented as described above. […] Spheroid growth was monitored using an Axio Observer live-cell phase contrast microscope (Zeiss®)."}, "[5]": {"tested_on": "SkBr3 cells", "experiment": "Direct cell counting, MitoQ alone", "type": "cell-based, human", "protocol": "(§2) To probe the effects of MitoQ alone on cell numbers, MDA-MB-231, SkBr3, MDA-MB-436 or MCF10A (2,500-10,000 cells/well) cells were plated in 96-well plates and treated with increasing concentrations of MitoQ. At each time point, the number of cells per well was measured using a SpectraMax i3 spectrophotometer equipped with a MiniMax™ imaging cytometer."}, "[6]": {"tested_on": "MDA-MB-231 cells", "experiment": "Direct cell counting, MitoQ alone", "type": "cell-based, human", "protocol": "as §2"}, "[7]": {"tested_on": "MDA-MB-436 cells", "experiment": "Direct cell counting, MitoQ alone", "type": "cell-based, human", "details": "increasing doses of MitoQ (0 to 500 nM)", "protocol": "as §2"}, "[8]": {"tested_on": "SkBr3 cells", "experiment": "Glucose consumption and lactate production, enzymatic assays on CMA600", "type": "cell-based, human", "details": "indicated doses of MitoQ, 48 h", "protocol": "(§3) Glucose and lactate concentrations were measured in cell supernatants collected after 48 h of culture ±MitoQ, using specific enzymatic assays on a CMA600 analyzer (Aurora Borealis®), as previously described in Sonveaux et al. (J Clin Invest; 2008; 118, 3930-3942). All data were normalized by total protein content (Bio-Rad® Protein Assay)."}, "[9]": {"tested_on": "MDA-MB-231 cells", "experiment": "Glucose consumption and lactate production, enzymatic assays on CMA600", "type": "cell-based, human", "details": "48 h", "protocol": "as §3"}, "[10]": {"tested_on": "SkBr3 cells", "experiment": "RNA sequencing", "type": "cell-based, human", "details": "MitoQ 500 nM, 48 h; |log 2 fold change|>1 and P<0.01", "protocol": "(§4) MDA-MB-231 and SkBr3 cancer cells were treated ±MitoQ for 48 h. Total mRNA was then extracted using the NucleoSpin RNA kit (Macherey-Nagel®), including DNAse treatment in the intermediary steps. mRNAs were quantified using the Qubit BR dsRNA assay kit (Thermo Fisher Scientific®), and mRNA integrity was evaluated on the Agilent 2100 Bioanalyzer using the RNA 6000 nano kit (Agilent®). All samples had RNA integrity number values ≥7.5. Libraries from control and treated samples were prepared starting from 150 ng of total mRNA using the KAPA RNA HyperPrep Kit with RiboErase (HMR) kit (KAPA Biosystems®) following the manufacturer's recommendations (KR1351—v1.16). Libraries were equimolarly pooled and sequenced on a single lane of an Illumina® NovaSeq 6000 platform. All libraries were sequenced at a depth of >50 million paired-end reads (2×100 bp reads) per sample. All sequencing data were analyzed using the Automated Reproducible MOdular workflow for preprocessing and differential analysis of RNAseq data (ARMOR) pipeline. In this pipeline, reads underwent a quality check using FastQC. Quantification and quality control results were summarized in a MultiQC report before being mapped using Salmon to the transcriptome index that was built using all Ensembl cDNA sequences obtained in the Homo_sapiens.GRCh38.cdna.all.fa file. Then, estimated transcript abundances from Salmon were imported into R using the tximeta package, and analyzed for differential gene expression with edgeR. To get a robust signature, only genes with |log 2 Fold Change|>1 and P<0.01 were retained."}, "[11]": {"tested_on": "MDA-MB-231 cells", "experiment": "RNA sequencing", "type": "cell-based, human", "details": "MitoQ 500 nM, 48 h; |log 2 fold change|>1 and P<0.01", "protocol": "as §4"}},
  "data": [
    {"smiles": "COC1=C(OC)C(=O)C(CCCCCCCCCC[P+](c2ccccc2)(c2ccccc2)c2ccccc2)=C(C)C1=O", "note": "[MitoQ]", "values": [
      {"measurement": "cancer cell killing activity, cisplatin combined with MitoQ", "setting": "[1]", "result": "did not interfere"},
      {"measurement": "AT (FIG. 14D, mitochondrial potential)", "setting": "[2]", "result": "repressed"},
      {"measurement": "mitochondrial potential (Δψ)", "setting": "[3]", "result": "not affected"},
      {"measurement": "spheroid formation", "setting": "[4]", "result": "dose-dependently retarded"},
      {"measurement": "MitoQ dose from which cell numbers started to decrease", "setting": "[5]; doses 0 to 500 nM", "result": "≥ 250", "unit": "nM"},
      {"measurement": "cell numbers, dose dependence", "setting": "[5]; increasing doses of MitoQ", "result": "Dose-dependent decreases"},
      {"measurement": "MitoQ dose starting from which cell number is reduced", "setting": "[6]; doses 0 to 500 nM", "result": "≥ 500", "unit": "nM"},
      {"measurement": "cell numbers, dose dependence", "setting": "[6]; increasing doses of MitoQ", "result": "Dose-dependent decreases"},
      {"measurement": "cell numbers", "setting": "[7]", "result": "dose-dependently reduced"},
      {"measurement": "glycolytic compensation with increasing dose", "setting": "[8]", "result": "saturated"},
      {"measurement": "glycolytic rate (glucose consumption, lactate production)", "setting": "[9]; MitoQ 100 nM", "result": "increasing"},
      {"measurement": "glycolytic compensation with increasing dose", "setting": "[9]; indicated doses of MitoQ", "result": "saturated"},
      {"measurement": "number of downregulated transcripts", "setting": "[10]", "result": 5},
      {"measurement": "number of upregulated transcripts", "setting": "[10]", "result": 20},
      {"measurement": "number of downregulated transcripts", "setting": "[11]", "result": "1,943"},
      {"measurement": "number of upregulated transcripts", "setting": "[11]", "result": "2,153"}
    ]}
  ]
}
